This is an account of results in the METLIN SMRT retention time set (Domingo-Almenara et al. 2019).

This data set in a line: gradient 5% acetonitrile 3 min, to 50% in 2 min, to 85% in 15 min, held 3 min, 100 µL/min. Particulars: column: Zorbax Extend-C18 2.1 x 50 mm; eluents: water / acetonitrile, 0.1% formic acid. Put shortly: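 Retention time was recorded from adduct peaks, which were picked computationally and each inspected manually. Pure standards ran in mixtures of ~100 molecules on HPLC coupled to a quadrupole time-of-flight mass spectrometer, in positive and negative ionization mode, through a Zorbax Extend-C18 column (2.1 × 50 mm, 1.8 μm) at 100 μL/min. Eluents were water and acetonitrile, each with 0.1% formic acid.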
`O=C(NC1CC1)C1CCN(c2nc3ncn(CC(=O)N4CCc5ccccc5C4)c(=O)c3s2)CC1` came in with an RP-LC retention time of 674 s. For `CCOc1ccc(N2C(=O)C3N=NN(Cc4nc(-c5ccccc5)no4)C3C2=O)cc1` (stereo not given) the value was 885 s. For `CC1=C(C(=O)OCCC#N)C(c2ccccc2F)NC(=O)N1` (stereo not given) the value was 645 s; for `O=C(Cc1csc2nc(-c3ccccc3)cn12)Nc1ccc(F)cc1`, 774 s.

Turning to `Cc1nc(N2CCN(c3ccccn3)CC2)nc2c1C(=O)CC(c1ccccc1)C2` (stereo not given), the RP-LC retention time is 757 s.

`N#Cc1cccnc1N1CCN(c2ccccn2)CC1` yielded an RP-LC retention time of 590 s.

Turning to `CCSc1nnc(NC(=O)Cn2nc(-n3cccn3)ccc2=O)s1`, the RP-LC retention time came to 653 s. For the compound `Cc1ccc(-n2ccn3cc(-c4ccc(F)cc4F)nc3c2=O)cc1Cl`, the RP-LC retention time was determined as 1000 s. For `COc1ccc(-c2csc(Nc3ccccn3)n2)cc1OC` the value was 761 s; for `CSc1cccc(NC(=O)CC2COc3ccccc3NC2=O)c1` (stereo not given), 742 s; for `O=c1c2sccc2n(Cc2nc(-c3ccccc3)no2)c(=O)n1Cc1ccc(F)cc1`, 1040 s.

Compound `CC(=O)N1CCN(c2nc3c(s2)CC(C(=O)Nc2ccccc2)CC3)CC1` (stereo not given) yielded an RP-LC retention time of 541 s. In the case of `CCOc1ccc(-n2nc(-c3nc(-c4ccc5c(c4)OCO5)no3)c3ccccc3c2=O)cc1` it was 1290 s; in that of `CC(C)CNC(=O)C1COC2(CCCCC2)N1C(=O)c1ccccc1C(F)(F)F` (stereo not given), 938 s.

`COc1ccc(Br)cc1CNC(=O)Cn1cc(-c2nnco2)c2ccccc21` showed an RP-LC retention time of 855 s. For `CCc1ccccc1NC(=O)Cc1nnc(-c2cnccn2)o1` the value was 685 s; for `CCc1nn(C)c(=O)c2cc(S(=O)(=O)NC(C)c3ccccc3)cn12` (stereo not given), 870 s; for `CCn1nccc1-c1cccc(-c2noc(C3CC(=O)N(c4ccc(C)c(C)c4)C3)n2)c1` (stereo not given), 1080 s. For `Cc1ccc(-c2cc(NC(=O)Cc3ccccc3C)on2)s1` the value was 1030 s; for `Cc1cc(Nc2ccccc2)nc(N2CCN(C(=O)Nc3cccc(Cl)c3)CC2)n1`, 763 s; for `CC(=O)N1CCc2ccc(NC(=O)Cc3ccc(-c4ccccc4)cc3)cc2C1`, 800 s. For `CCc1csc(-c2ccc(S(=O)(=O)NCCN3CCC(C)CC3)s2)n1` the value was 718 s; for `O=C(Nc1ccccc1)N1CCC(N2CCN(Cc3cccc(F)c3)C(=O)C2=O)CC1`, 691 s. Turning to `CN(C)c1ncncc1N1CCC(C(=O)NCc2ccc(Cl)cc2)CC1`, the RP-LC retention time was 643 s. In the case of `CC(C)CCNC(=O)C1CCN(Cc2cc3ccccc3n2Cc2cccc(Cl)c2)CC1` it was 845 s; in that of `CC1CCN(S(=O)(=O)c2ccc3nn(Cc4c(F)cccc4Cl)c(=O)n3c2)CC1`, 1030 s. In the case of `O=C(Cc1cccs1)N1CCC(c2noc(-c3ccncc3)n2)C1` (stereo not given) it was 702 s; in that of `COc1ccc(N2C(=O)CSC2c2ccc(Cl)cc2)cc1` (stereo not given), 877 s; in that of `CN(C)CCCNc1oc(-c2ccccc2)nc1S(=O)(=O)c1ccc(F)cc1`, 692 s.

Turning to `O=S(=O)(c1ccc(Cl)cc1)N1CCc2nc(-c3ccc(F)cc3)ncc2C1`, the RP-LC retention time was determined as 1150 s. Regarding `CC(C)CC(=O)NCC12CCCC=C1N(C)C(=O)CC2` (stereo not given), the RP-LC retention time is 726 s.

Turning to `O=C(C1CCOC1)N1CCC2(CC1)NCCc1c2[nH]c2ccccc12` (stereo not given), the RP-LC retention time was found to be 608 s. In the case of `CCN(Cc1cn(CC)nc1C)C(=O)CC1=C2CCCCC2N(C)C1=O` (stereo not given) it was 648 s; in that of `Cc1nc(-c2noc(-c3ccccc3)n2)cn1CC(=O)NCc1cccs1`, 789 s; in that of `COc1ccc(N2N=NC3C(=O)N(c4ccc(F)cc4)C(=O)C32)cc1OC` (stereo not given), 1140 s.

In the case of `Cc1occc1C(=O)N[C@@H]1CN(S(C)(=O)=O)C[C@H]1CN(C)C`, the RP-LC retention time was determined as 573 s. For `CCOC(=O)c1c(N2CCOCC2)nc2ccc([N+](=O)[O-])cc2c1-c1ccccc1` the value was 1110 s; for `COc1ccc(C(=O)N2CCn3c(nnc3C(C)C)C2)c(OC)n1`, 588 s; for `O=C(Nc1cccc(N2CCCCC2=O)c1)OCc1ccccc1`, 724 s.

`Cc1ccc(-c2nnc(Cc3nc(-c4ccc(OC(C)C)cc4)no3)o2)cc1F` displayed an RP-LC retention time of 1190 s. In the case of `CCn1c(C(=O)NC2CCCC2)cc2sc(Cl)cc21` it was 1110 s; in that of `Cc1ccc(CNC(=O)c2nnc(-c3ccc(S(=O)(=O)N4CCOCC4)cc3)o2)o1`, 820 s; in that of `CCc1nnc2c(=O)n(CC(=O)NCc3cccc(F)c3)c3cccnc3n12`, 710 s. In the case of `CCCn1cnc2ccc(-c3noc(CNC(=O)c4cccs4)n3)cc21` it was 652 s; in that of `COc1ccc(-c2noc(C3CC(=O)N(c4ccc(C)c(F)c4)C3)n2)c(OC)c1` (stereo not given), 948 s. Turning to `COc1ccc(C)cc1NC(=O)N1CCC(CC(=O)N2CCCCC2)CC1`, the RP-LC retention time came to 811 s. `NC(=O)C1CCN(C(=O)c2ccc3c(c2)CCN3S(=O)(=O)c2ccc(Cl)cc2)CC1` came in with an RP-LC retention time of 711 s. For `Cc1sc2ccn(C)c(=O)c2c1C(=O)NCc1cccc(Cl)c1` the value was 817 s; for `Cc1c2c(nn1-c1ccc(SCc3ccccc3F)nn1)CCC2`, 1270 s; for `CC(=O)Nc1ccc(CCc2nc3ccc(C(=O)NCc4ccc(C)o4)cc3[nH]2)cc1`, 606 s.

The compound `COc1ccc2c(c1)C1(CCN(C(=O)NCCC(C)C)C1)C(=O)N2` (stereo not given) had an RP-LC retention time of 716 s. In the case of `CCc1noc(NC(C)=O)c1-c1ccc(C)c(S(=O)(=O)Nc2ccc(Br)cc2F)c1` it was 903 s. For `COc1ccc(S(=O)(=O)N2C[C@@H](F)C[C@H]2C(=O)N2CCCCC2)cc1` the value was 762 s; for `COc1ccc(NC(=O)C2(CCO)CCN(c3ncccn3)C2)cn1` (stereo not given), 706 s. As for `Cc1ccc(CNC(=O)c2ccc(-c3cc(N4CCCC4)ncn3)cc2)o1`, the RP-LC retention time was 654 s.

Consider `Cc1ccccc1-c1noc(C2CCCN2S(=O)(=O)c2ccc3c(c2)CCCC3)n1` (stereo not given), for which the RP-LC retention time was 1340 s. For `CCCCS(=O)(=O)c1cc2c(cc1NC(=O)Cc1ccc(C)cc1)n(C)c(=O)n2C` the value was 931 s; for `O=C(c1cc(F)ccc1F)N1CCN(c2cc(-c3ccc(Cl)cc3)[nH]n2)CC1`, 847 s; for `CC(C)COc1ccc(S(=O)(=O)N2CCOC(c3ccccc3)C2)cc1` (stereo not given), 560 s. In the case of `CC1(C(=O)NCc2ccc(F)cc2)CCN(S(=O)(=O)c2ccc(C3CCCCC3)cc2)CC1` it was 1210 s; in that of `CCOc1ccc(-c2noc(Cc3nnc(-c4cc(F)cc(F)c4)o3)n2)cc1`, 1100 s; in that of `COc1ccc(-c2csc(NC(=O)CS(=O)(=O)c3ccc(C)cc3)n2)cc1OC`, 893 s. The compound `CCCN1CCN(C2CCN(C(=O)C(CC)CC)CC2)C1=O` returned an RP-LC retention time of 727 s. In the case of `Cc1oc(C2CCN(C(=O)Nc3ccccc3F)CC2)nc1C(=O)N1CCCC1` it was 753 s; in that of `COCCNC(=O)C1CCCN(c2cnc3nc(C)c(C)nc3c2)C1` (stereo not given), 602 s; in that of `COC(=O)c1c(NCc2ccccc2F)c2cccc(Cl)c2[nH]c1=O`, 808 s.

`CN(C)c1ccc(C(=O)N2CCN(c3cc(-c4ccc(Cl)cc4)[nH]n3)CC2)cc1` gave an RP-LC retention time of 865 s. Turning to `COCCn1cc(CCNC(=O)Nc2ccc(F)cc2F)c2cccnc21`, the RP-LC retention time came to 729 s. Regarding `COC1CN(c2ccc(C)cc2)C12CCNCC2` (stereo not given), the RP-LC retention time turned out to be 622 s. Compound `CC1=C(C(=O)Nc2ccccc2F)C2(CCN(C(C)C)CC2)OC1=O` displayed an RP-LC retention time of 613 s. For `CSc1ccccc1NC(=O)c1ccc(-n2cccn2)nn1` the value was 609 s; for `CCn1c(=O)c(N2CCN(C(=O)NCc3ccco3)CC2)nc2ccccc21`, 811 s. For `Cc1ccc(NC(=O)CSc2nnc3c4cc(-c5ccc(F)cc5)nn4ccn23)c(C)c1` the value was 931 s; for `COc1cccc(CN2CCc3nc(N4CCCC4)ncc3C2)c1OC`, 610 s. `CCOC(=O)c1cc(C2CC2)nc2c1c(=O)n(Cc1ccc(Br)cc1F)c(=O)n2C`: the RP-LC retention time came to 1270 s.

The compound `COCCN(C)C(=O)c1cn(C2CN(S(=O)(=O)c3c(C)noc3C)C2)nn1` registered an RP-LC retention time of 703 s. For `CC(O)(CNC(=O)NC1CCCCC1)c1ccc2c(c1)OCO2` (stereo not given) the value was 709 s. For `CNC(=O)Nc1ccc(C2(C(=O)NCc3ccco3)CCC2)cc1` the value was 670 s; for `Cc1ccccc1NC(=O)N1CCC2(CC1)NC(=O)c1cc(F)ccc1N2C`, 1070 s. Take `CN(C)C(CNC(=O)Cn1c(=O)oc2ccccc21)c1cn(C)c2ccccc12` (stereo not given): the RP-LC retention time came out at 575 s.
